How the values were obtained:
Assay in all cases: Protein kinase inhibition assay
Type in all cases: biochemical
Flt1(h) = Flt1(h) (Homo sapiens, UniProt P17948); settings: read-out: percent residual activity of Flt1(h)
Procedure: (§1) Certain compounds were tested for activity in protein kinase inhibition assays. All substrates were dissolved and diluted to working stocks in de-ionized water, apart from histone H1 (10× working stock in 20 mM MOPS pH 7.0), PDKtide (10× working stock in 50 mM Tris pH 7.0) ATF2 (which is typically stored at a 20× working stock in 50 mM Tris pH 7.5, 150 mM NaCl, 0.1 mM EGTA, 0.03% Brij-35, 50% glycerol, 1 mM benzamidine, 0.2 mM PMSF and 0.1% R-mercaptoethanol), KKLNRTLSFAEPG (SEQ ID NO:203) and RRRLSFAEPG (SEQ ID NO:204) (50 mM HEPES pH 7.4) and GGEEEEYFELVKKKK (SEQ ID NO:205) (20 mM MOPS pH 7.0). All kinases were pre-diluted to a 10× working concentration prior to addition into the assay. The composition of the dilution buffer for each kinase is detailed below.
(§2) In a final reaction volume of 25 μl, Flt1 (h) (5-10 mU) is incubated with 8 mM MOPS pH 7.0, 0.2 mM EDTA, 250 μM KKKSPGEYVNIEFG (SEQ ID NO:207), 10 mM MgAcetate and [gamma-33P-ATP] (specific activity approx. 500 cpm/pmol, concentration as required). The reaction is initiated by the addition of the MgATP mix. After incubation for 40 minutes at room temperature, the reaction is stopped by the addition of 5 μl of a 3% phosphoric acid solution. 10 μl of the reaction is then spotted onto a P30 filtermat and washed three times for 5 minutes in 75 mM phosphoric acid and once in methanol prior to drying and scintillation counting.

MAPK1(h) = MAPK1(h) (Homo sapiens, UniProt P27361); settings: read-out: percent residual activity of MAPK1(h)
Procedure: as §1
as §2, with “MAPK1” for “Flt1”, “25” for “8”, “Tris” for “MOPS”, “7.5, 0.02” for “7.0, 0.2”, “EGTA,” for “EDTA,”, “peptide,” for “KKKSPGEYVNIEFG (SEQ ID NO:207),”

MKK4(m) = MKK4(m) (Mus musculus, UniProt P47809); settings: read-out: percent residual activity of MKK4(m)
Procedure: as §1
The reaction is initiated by the addition of the MGATP. After incubation for 40 minutes at room temperature, 5 μl of this incubation mix is used to initiate a JNK1α1 (h) assay, which is exactly as described on page 11 of this book except that ATF2 is replaced with 250 μM peptide.

MRCKβ(h) = MRCKβ(h) (Homo sapiens, UniProt Q9Y5S2); settings: read-out: percent residual activity of MRCKβ(h)
Procedure: as §1
as §2, with “MRCKβ” for “Flt1”, “100” for “250”, “KKRNRTLTV” for “KKKSPGEYVNIEFG”, “NO:219),” for “NO:207),”

PRK2(h) = PRK2(h) (Homo sapiens, UniProt Q16513); settings: read-out: percent residual activity of PRK2(h)
Procedure: as §1
(§3) In a final reaction volume of 25 μl, PRK2 (h) (5-10 mU) is incubated with 50 mM Tris pH 7.5, 0.1 mM EGTA, 0.1% R-mercaptoethanol, 30 μM AKRRRLSSLRA (SEQ ID NO:226), 10 mM MgAcetate and [gamma-33P-ATP] (specific activity approx. 500 cpm/pmol, concentration as required). The reaction is initiated by the addition of the MgATP mix. After incubation for 40 minutes at room temperature, the reaction is stopped by the addition of 5 μl of a 3% phosphoric acid solution. […]

Rsk1(h) = Rsk1(h) (Homo sapiens, UniProt Q15418); settings: read-out: percent residual activity of Rsk1(h)
Procedure: as §1
as §2, with “Rsk1” for “Flt1”, “30” for “250”, “KKKNRTLSVA” for “KKKSPGEYVNIEFG”, “NO:212),” for “NO:207),”

Syk(h) = Syk(h) (Homo sapiens, UniProt P43405); settings: read-out: percent residual activity of Syk(h)
Procedure: as §1
as §3, with “Syk” for “PRK2”, “EGTA, 0.1 mM Na3VO4,” for “EGTA,”, “0.1 mg/ml poly(Glu, Tyr) 4:1,” for “30 μM AKRRRLSSLRA (SEQ ID NO:226),”

MAPK1(h), sequence (P27361 whole entry): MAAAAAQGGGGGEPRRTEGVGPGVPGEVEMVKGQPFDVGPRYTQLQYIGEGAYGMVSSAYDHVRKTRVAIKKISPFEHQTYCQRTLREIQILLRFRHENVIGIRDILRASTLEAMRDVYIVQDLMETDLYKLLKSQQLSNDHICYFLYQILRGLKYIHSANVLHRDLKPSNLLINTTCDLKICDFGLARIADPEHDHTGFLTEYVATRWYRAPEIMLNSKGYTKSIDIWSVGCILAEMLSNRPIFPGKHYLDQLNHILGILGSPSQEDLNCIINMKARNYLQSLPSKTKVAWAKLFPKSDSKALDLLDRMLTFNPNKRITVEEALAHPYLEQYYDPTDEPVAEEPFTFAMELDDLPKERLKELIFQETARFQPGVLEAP
MRCKβ(h), sequence (Q9Y5S2 whole entry): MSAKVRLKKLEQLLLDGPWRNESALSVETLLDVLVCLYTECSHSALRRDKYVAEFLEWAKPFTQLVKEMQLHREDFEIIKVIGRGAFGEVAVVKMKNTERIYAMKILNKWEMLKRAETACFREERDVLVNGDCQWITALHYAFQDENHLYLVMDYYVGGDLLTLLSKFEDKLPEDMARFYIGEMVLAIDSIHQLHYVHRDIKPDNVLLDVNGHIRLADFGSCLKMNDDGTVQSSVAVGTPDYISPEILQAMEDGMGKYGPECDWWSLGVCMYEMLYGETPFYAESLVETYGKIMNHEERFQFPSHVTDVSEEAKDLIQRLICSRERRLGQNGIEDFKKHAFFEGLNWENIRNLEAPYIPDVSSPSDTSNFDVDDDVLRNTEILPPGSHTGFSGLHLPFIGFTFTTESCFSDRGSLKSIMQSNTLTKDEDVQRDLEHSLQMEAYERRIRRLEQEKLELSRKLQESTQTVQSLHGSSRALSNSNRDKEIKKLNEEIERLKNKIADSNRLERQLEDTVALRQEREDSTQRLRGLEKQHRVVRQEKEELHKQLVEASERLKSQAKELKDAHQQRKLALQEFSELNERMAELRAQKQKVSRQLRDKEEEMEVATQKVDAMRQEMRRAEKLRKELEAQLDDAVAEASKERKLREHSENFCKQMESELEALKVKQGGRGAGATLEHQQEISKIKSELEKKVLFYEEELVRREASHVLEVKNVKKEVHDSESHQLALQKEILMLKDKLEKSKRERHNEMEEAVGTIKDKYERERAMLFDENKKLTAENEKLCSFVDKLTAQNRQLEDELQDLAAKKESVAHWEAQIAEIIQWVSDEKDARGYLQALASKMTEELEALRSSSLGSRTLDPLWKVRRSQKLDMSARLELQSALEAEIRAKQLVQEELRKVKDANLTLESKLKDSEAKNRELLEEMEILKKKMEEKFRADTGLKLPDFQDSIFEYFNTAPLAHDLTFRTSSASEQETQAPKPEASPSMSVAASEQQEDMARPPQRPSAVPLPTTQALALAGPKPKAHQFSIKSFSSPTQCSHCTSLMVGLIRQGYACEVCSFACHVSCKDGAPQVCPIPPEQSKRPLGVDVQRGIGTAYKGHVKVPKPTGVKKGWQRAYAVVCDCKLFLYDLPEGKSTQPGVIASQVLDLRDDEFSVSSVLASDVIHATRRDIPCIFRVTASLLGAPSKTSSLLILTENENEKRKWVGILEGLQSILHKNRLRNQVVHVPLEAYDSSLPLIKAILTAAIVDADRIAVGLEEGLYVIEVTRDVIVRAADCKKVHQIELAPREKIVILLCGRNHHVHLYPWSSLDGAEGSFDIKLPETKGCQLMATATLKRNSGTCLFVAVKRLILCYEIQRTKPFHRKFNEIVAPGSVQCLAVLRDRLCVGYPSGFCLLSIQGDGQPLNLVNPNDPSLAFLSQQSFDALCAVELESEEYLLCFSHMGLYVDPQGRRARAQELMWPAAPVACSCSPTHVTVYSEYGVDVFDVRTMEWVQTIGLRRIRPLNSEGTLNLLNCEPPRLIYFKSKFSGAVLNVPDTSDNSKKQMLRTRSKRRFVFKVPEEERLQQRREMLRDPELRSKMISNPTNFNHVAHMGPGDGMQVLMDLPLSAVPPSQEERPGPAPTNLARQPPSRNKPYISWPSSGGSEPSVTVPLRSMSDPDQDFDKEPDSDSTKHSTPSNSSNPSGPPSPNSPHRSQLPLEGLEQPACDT
MKK4(m), sequence (P47809 whole entry): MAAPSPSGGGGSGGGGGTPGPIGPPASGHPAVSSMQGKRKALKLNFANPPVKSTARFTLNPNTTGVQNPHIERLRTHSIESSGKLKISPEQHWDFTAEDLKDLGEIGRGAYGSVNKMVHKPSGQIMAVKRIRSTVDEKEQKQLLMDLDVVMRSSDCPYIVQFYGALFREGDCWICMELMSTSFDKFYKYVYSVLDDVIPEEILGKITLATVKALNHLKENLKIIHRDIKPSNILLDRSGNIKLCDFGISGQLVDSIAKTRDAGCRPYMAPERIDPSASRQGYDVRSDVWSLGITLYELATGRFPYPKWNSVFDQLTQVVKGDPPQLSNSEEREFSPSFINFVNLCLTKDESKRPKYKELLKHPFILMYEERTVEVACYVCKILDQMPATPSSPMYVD
PRK2(h), sequence (Q16513 whole entry): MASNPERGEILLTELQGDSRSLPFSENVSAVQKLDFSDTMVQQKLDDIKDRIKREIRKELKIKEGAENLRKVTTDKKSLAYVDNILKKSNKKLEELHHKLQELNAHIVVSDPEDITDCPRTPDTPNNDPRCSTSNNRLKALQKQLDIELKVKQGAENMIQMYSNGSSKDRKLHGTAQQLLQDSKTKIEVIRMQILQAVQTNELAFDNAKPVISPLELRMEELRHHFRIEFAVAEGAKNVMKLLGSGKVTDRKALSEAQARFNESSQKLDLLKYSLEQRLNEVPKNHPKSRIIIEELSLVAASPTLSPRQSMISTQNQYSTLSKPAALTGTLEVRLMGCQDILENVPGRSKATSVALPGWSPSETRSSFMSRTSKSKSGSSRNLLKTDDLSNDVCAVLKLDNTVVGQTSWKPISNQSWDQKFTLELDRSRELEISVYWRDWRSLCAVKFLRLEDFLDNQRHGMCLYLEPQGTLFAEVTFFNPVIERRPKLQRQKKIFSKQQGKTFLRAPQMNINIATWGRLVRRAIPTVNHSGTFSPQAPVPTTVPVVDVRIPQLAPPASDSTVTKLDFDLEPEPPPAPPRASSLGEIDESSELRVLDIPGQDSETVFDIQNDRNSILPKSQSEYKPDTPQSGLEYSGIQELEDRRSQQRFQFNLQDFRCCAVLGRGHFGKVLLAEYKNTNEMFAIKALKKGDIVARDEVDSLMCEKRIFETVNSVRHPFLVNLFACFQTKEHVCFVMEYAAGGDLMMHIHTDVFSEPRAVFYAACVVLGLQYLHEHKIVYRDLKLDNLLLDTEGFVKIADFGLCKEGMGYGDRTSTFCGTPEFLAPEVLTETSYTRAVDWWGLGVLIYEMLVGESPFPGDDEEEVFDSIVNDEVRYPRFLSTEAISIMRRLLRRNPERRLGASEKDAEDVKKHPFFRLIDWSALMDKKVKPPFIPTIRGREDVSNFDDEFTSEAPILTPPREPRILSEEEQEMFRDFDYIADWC
Rsk1(h), sequence (Q15418 whole entry): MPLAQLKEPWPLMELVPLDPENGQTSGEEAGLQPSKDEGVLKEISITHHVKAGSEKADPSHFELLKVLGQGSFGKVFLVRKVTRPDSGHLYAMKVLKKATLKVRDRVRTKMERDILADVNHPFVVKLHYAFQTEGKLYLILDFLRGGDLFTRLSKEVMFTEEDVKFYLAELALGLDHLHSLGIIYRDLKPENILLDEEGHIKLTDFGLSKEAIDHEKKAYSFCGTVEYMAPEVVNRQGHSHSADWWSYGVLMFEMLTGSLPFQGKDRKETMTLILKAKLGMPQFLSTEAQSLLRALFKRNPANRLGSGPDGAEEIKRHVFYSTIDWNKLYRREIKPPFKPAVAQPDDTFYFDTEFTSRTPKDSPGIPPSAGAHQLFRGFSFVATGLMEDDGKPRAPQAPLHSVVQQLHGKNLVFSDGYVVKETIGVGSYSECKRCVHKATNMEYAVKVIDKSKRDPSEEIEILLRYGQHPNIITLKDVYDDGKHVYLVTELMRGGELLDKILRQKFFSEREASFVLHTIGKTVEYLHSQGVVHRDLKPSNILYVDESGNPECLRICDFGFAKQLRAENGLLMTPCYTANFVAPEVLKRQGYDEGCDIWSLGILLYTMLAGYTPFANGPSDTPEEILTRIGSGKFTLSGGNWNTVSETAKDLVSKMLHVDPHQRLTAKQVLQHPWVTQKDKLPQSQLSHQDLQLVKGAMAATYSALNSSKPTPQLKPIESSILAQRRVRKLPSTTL

remaining activity at 2.5 µM (Flt1(h)) [%] | remaining activity at 2.5 µM (MAPK1(h)) [%] | remaining activity at 2.5 µM (MKK4(m)) [%] | remaining activity at 2.5 µM (MRCKβ(h)) [%] | remaining activity at 2.5 µM (PRK2(h)) [%] | remaining activity at 2.5 µM (Rsk1(h)) [%] | remaining activity at 2.5 µM (Syk(h)) [%] | Structure (SMILES)
106 | 94 | 99 | 102 | 110 | 103 | 111 | CC(=O)N1CCN(c2ccc3c(=O)c(C(=O)NCCN4CCCC4)c4n(C)c5ccccc5n4c3n2)CC1 [Compound B-1]
78 | 92 | 108 | 84 | 36 | 85 | 67 | CN1CCCC1CCNC(=O)c1cn2c3c(c(N4CCC(c5cnccn5)C4)c(F)cc3c1=O)Oc1cc3ccccc3cc1-2 (centres unmarked) [Compound A-1]
